# Measurements as given in US9108958B2, “Selective CCR2 antagonists” (Boehringer Ingelheim International GmbH, priority 2011, dated 2015).
# Experiments:
# CCR2 = molecular target: T1, CCR2 (Homo sapiens, UniProt P41597); test: CCR2 receptor membrane binding assay ([125I]MCP-1, THP-1 cell membranes, SPA beads); settings: THP-1 membranes, [125I]MCP-1, bound radioactivity after 8 h; read-out: hKi [nM](CCR2)
# T1 construct: Membranes were prepared from THP-1 cells; endogenous in cells; host or cells: THP-1 (human acute monocytic leukaemia cells), membrane preparation
# T1 sequence (P41597 1-360 isoform P41597-2): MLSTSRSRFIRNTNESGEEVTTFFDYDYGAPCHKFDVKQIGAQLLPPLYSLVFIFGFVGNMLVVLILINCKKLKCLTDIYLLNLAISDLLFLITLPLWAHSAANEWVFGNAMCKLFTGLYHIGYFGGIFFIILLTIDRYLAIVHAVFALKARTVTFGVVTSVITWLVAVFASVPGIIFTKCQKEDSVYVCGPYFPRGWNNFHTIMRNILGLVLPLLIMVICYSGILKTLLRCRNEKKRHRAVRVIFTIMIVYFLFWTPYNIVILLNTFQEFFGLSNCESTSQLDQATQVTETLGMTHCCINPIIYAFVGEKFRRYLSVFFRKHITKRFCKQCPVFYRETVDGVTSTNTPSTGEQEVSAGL
# Protocol: The above exemplary substances have been tested for binding to CCR2 using a binding assay as outlined herein below:
# THP-1 cells (human acute monocytic leukaemia cells) were cultured under standardized conditions at 37° C. and 5% CO2 in a humidified incubator. THP-1 cells were cultivated in RPMI 1640 medium (Gibco 21875) containing 1% MEM-NEAA (Gibso 11140) 2 mM L-glutamine, 1.5 g/L sodium bicarbonate, 4.5 g/L glucose, 10 mM HEPES and 1.0 mM sodium pyruvate, 90%; 10% fetal calf serum (FCS Gibco 10500-064).
# Membranes were prepared from THP-1 cells. THP-1 cells were centrifuged at 300×g at 4° C. for 10 min. The cell pellet was resuspendet in Phosphate Buffer Saline (PBS, including 10 μM Pefabloc and a protease inhibitor mix ‘complete’, Boehringer Mannheim (1 tablet/50 ml)), to a concentration of […]. The membrane preparation was performed by disrupting the cells by nitrogen […] (at 50 bar, for 1 h) in a “Nitrogen Bombe” (Parr Instrument). Cell debris was removed by centrifugation (800×g at 4° C., 1 min) The supernatant was centrifuged at 80000×g, 4° C. for 30 min to sediment the cell membranes. Usually 50 mg of protein (Bradford assay) were yielded from 1×10E9 cells. The membranes were resuspendet in 25 mM HEPES, 25 mM MgCl2, 1 mM CaCl2, 10% Glycerine for storage in aliquots at −80° C. in 25 mM HEPES, 25 mM MgCl2, 1 mM CaCl2, 10% Glycerine and stored at −80° C.
# (§1) Receptor Membrane Binding Assay:
# Perkin Elmer NEX 332 Jod^125 MCP-1, Stock: 2200 Ci/mmol solved in 2000 μl assay buffer, stored at −20° C. THP-1 membrane were adjusted with 25 mM HEPES, pH 7.2; 5 mM MgCl2; 0.5 mM CaCl2; 0.2% BSA assay buffer to a concentration of 2.5 μg/15 μl. Amersham Biosciences PVT-WGA Beads (RPNQ0001) were adjusted with assay buffer to a concentration of 0.24 mg/30 μl. For preparation of the membrane-bead-suspension membranes and beads were incubated for 30 min at RT under rotation (60 rpm) with a ratio of 1:2. Test compounds dissolved in 100% DMSO to a concentration of 10 mM and are further diluted with 100% DMSO to 1 mM. All additional compound dilutions were obtained with assay buffer, final 1% DMSO. Compounds, membrane-bead-suspension and [^125I]MCP-1 (ca. 25000 cpm/10 μl) were incubated. Bound radioactivity was determined by scintillation counter after 8 h. Determination of affinity of test compounds (dissociation constant hKi) is calculated by iterative fitting of experimental data using the “easy sys” program, which is based on law of mass action (Schittkowski K. (1994), Numerische Mathematik, Vol. 68, 129-142).
# human CCR5 = molecular target: T2, human CCR5 (Homo sapiens, UniProt P51681); test: CCR5 receptor membrane binding assay ([125I]RANTES, CHO (Gα16) human CCR5 cell membranes, SPA beads); settings: bound radioactivity after 6 h, read-out: hKi [nM] (CCR5)
# T2 construct: expressed in transfected cells; host or cells: CHO cells co-expressing Gα16, under puromycin and zeocin selection; membrane preparation
# Protocol: The above exemplary substances have been tested for binding to CCR5 using a binding assay as outlined herein below:
# CHO, (Gα16) human CCR5 cells were cultured under standardized conditions at 37° C. and 5% CO2 in a humidified incubator. CHO (Gα16) human CCR5 cells were cultivated in Ham's F12 (Invitrogen; #31765068) supplemented with 10 μg/ml Puromycin (Invitrogen; #A11139-03), 200 μg/ml Zeocin (Invitrogen; #45-0003) and 10% FCS (Gibco; #10500-064).
# Membranes were prepared from CHO (Gα16) human CCR5 cells. Cells were cultured on […] plates (Nunc; #166508) 2-3 days before membrane preparation (usually 80-100 plates to obtain 80 mg protein).
# Cells were scraped off the plates with a big scraper and washed with 2×5 ml ice cold Phosphate Buffer Saline (PBS; Invitrogen; #14040-174). Cell suspension was collected in a glass bottle (on ice). Cell suspension was harvested at 1400 rpm and 4° C. for 10 min and washed in PBS. Cell pellet was resuspended in 40 ml PBS with protease inhibitor mix ‘complete’ (Roche; #11873580001; 1 tablet/50 ml).
# For gentle cell disruption the membrane preparation was performed by using a homogenizer (potter). Cells were homogenized for 5-10 min.
# Membranes were centrifuged at 1000 rpm and 4° C. for 5 min Supernatant (=membrane) was harvested in a new falcon tube and remaining cell pellet homogenized again for 5-10 min with PBS with protease inhibitor mix and centrifuged. Collected supernatant was centrifuged at 40000 rpm and 4° C. for 30 min to sediment the cell membranes.
# The membranes were resuspended in 25 mM HEPES, 25 mM MgCl2, 1 mM CaCl2, 10% Glycerine for storage in aliquots at −80° C. Membranes were diluted to a concentration of 5 mg/ml (Bradford Assay).
# as §1
# [^125I]RANTES, Stock: 1825 Ci/mmol, 25 μCi (Bio Trend #A3-AI-676) was solved in 1000 μl assay buffer (100 mM NaCl; 10 mM MgCl2; 50 mM Tris-HCl; 1 mM EDTA; 0.1% BSA, pH 7.6), stored at −20° C.
# CHO (Gα16) human CCR5 membrane were solved on ice and adjusted with assay buffer to a concentration of 2.5 μg/15 μl.
# Amersham Biosciences PVT-WGA Beads (GE Healthcare; #RPNQ0001) were adjusted with assay buffer to a concentration of 8 mg/ml. For preparation of the membrane-bead-suspension, membranes and beads were incubated for 30 min at RT under rotation with a ratio of 1:2.
# Test compounds dissolved in 100% DMSO to a concentration of 10 mM and are further diluted with 100% DMSO to 1 mM. All additional compound dilutions were obtained with assay buffer, final 1% DMSO. 7 μl compound dilution, 45 μl membrane-bead-suspension and 10 μl [^125I]RANTES (ca. 20000 cpm/10 μl) were incubated at RT. Bound radioactivity was determined by scintillation counter after 6 h. Determination of affinity of test compounds (dissociation constant Ki) is calculated by iterative fitting of experimental data using the “easy sys” program, which is based on law of mass action (Schittkowski K. (1994), Numerische Mathematik, Vol. 68, 129-142).
# T2 sequence (P51681 whole entry): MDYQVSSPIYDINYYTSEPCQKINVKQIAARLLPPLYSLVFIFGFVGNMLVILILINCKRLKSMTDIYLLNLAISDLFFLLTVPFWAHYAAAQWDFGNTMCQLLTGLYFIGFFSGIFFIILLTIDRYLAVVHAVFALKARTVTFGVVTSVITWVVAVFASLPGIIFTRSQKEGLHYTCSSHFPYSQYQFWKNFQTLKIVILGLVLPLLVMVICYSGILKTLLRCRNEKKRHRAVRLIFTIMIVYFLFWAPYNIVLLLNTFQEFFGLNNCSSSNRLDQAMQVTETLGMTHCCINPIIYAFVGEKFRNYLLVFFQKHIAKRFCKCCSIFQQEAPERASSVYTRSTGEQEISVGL
Compound,Ki (CCR2),Ki (human CCR5)
Cc1c(C(=O)N2CCC(N[C@H]3CCOC[C@H]3F)CC2)nc(C2CCOCC2)nc1N1CCc2cc(C(F)(F)F)ccc2C1 [Example 5],14 nM,4580 nM
Cc1c(C(=O)N2CCC(N[C@H]3CCOC[C@H]3F)CC2)nc(C2CCOCC2)nc1N1CCc2ccc(C(F)(F)F)cc2C1 [Example 13],5 nM,1300 nM
Cc1cc(-c2nc(NC[C@H]3CCC[C@@H](c4ccc(C(F)(F)F)cc4)O3)c(C)c(C(=O)N3CCC(N[C@H]4CCOC[C@H]4F)CC3)n2)no1 [Example 23],1 nM,
CO[C@@H]1COCC[C@@H]1NC1CCN(C(=O)c2cc(NC[C@H]3CCC[C@@H](c4ccc(C)cc4)O3)nc(CF)n2)CC1 [Example 30],3 nM,
Cc1ccc([C@@H]2CCC[C@H](CNc3cc(C(=O)N4CCC(NC5CCOCC5F)CC4)nc(CF)n3)O2)cc1 (some centres unmarked) [Example 31],15 nM,
CO[C@H]1COCC[C@H]1NC1CCN(C(=O)c2cc(NC[C@H]3CCC[C@@H](c4ccc(C)cc4)O3)nc(CF)n2)CC1 [Example 32],5 nM,
Cc1c(C(=O)N2CCC(NC3CCOCC3)CC2)nc(C(F)(F)F)nc1N1CCc2ccc(C(F)(F)F)cc2C1 [Example 33],7 nM,
Cc1c(Nc2ccc(Cl)c(Cl)c2)nc(CF)nc1C(=O)N1CCC(N2CCC(N(C)S(C)(=O)=O)CC2)CC1 [Example 36],2 nM,
Cc1c(Nc2ccc(Cl)c(Cl)c2)nc(CF)nc1C(=O)N1CCC(N2CCOCC2)CC1 [Example 38],37 nM,
CO[C@@H]1COCC[C@@H]1NC1CCN(C(=O)c2cc(NC[C@H]3CCC[C@@H](c4ccc(SC)cc4)O3)nc(CF)n2)CC1 [Example 39],4 nM,
CO[C@H]1COCC[C@H]1NC1CCN(C(=O)c2cc(NC[C@H]3CCC[C@@H](c4ccc(SC)cc4)O3)nc(CF)n2)CC1 [Example 41],2 nM,
CC(=O)N1CCC(c2nc(Nc3ccc(Cl)c(Cl)c3)c(C)c(C(=O)N3CCC(N[C@@H]4CCOC[C@@H]4F)CC3)n2)CC1 [Example 42],17 nM,
CC(=O)N1CCC(c2nc(Nc3ccc(Cl)c(Cl)c3)c(C)c(C(=O)N3CCC(N[C@H]4CCOC[C@H]4F)CC3)n2)CC1 [Example 43],19 nM,
CO[C@@H]1COCC[C@@H]1NC1CCN(C(=O)c2nc(C3CCN(C(C)=O)CC3)nc(Nc3ccc(Cl)c(Cl)c3)c2C)CC1 [Example 44],4 nM,

# Other lines, results leading:
Ki (CCR2),Ki (human CCR5),Compound
17 nM,3450 nM,Cc1c(C(=O)N2CCC(N[C@H]3CCOC[C@H]3F)CC2)nc(CF)nc1N1CCc2ccc(C(F)(F)F)cc2C1 (relative stereo) [Example 45]
34 nM,3680 nM,Cc1c(C(=O)N2CCC(N[C@H]3CCOC[C@@H]3F)CC2)nc(CF)nc1N1CCc2ccc(C(F)(F)F)cc2C1 (relative stereo) [Example 46]
3 nM,265 nM,CO[C@H]1COCC[C@H]1NC1CCN(C(=O)c2nc(C(F)(F)F)nc(N3CCc4ccc(C(F)(F)F)cc4C3)c2C)CC1 [Example 1]
2 nM,150 nM,CO[C@@H]1COCC[C@@H]1NC1CCN(C(=O)c2nc(C(F)(F)F)nc(N3CCc4ccc(C(F)(F)F)cc4C3)c2C)CC1 [Example 2]
4 nM,700 nM,CO[C@H]1COCC[C@H]1NC1CCN(C(=O)c2nc(C3CCOCC3)nc(N3CCc4cc(C(F)(F)F)ccc4C3)c2C)CC1 [Example 3]
2 nM,310 nM,CO[C@@H]1COCC[C@@H]1NC1CCN(C(=O)c2nc(C3CCOCC3)nc(N3CCc4cc(C(F)(F)F)ccc4C3)c2C)CC1 [Example 4]
20 nM,17300 nM,Cc1cc(-c2nc(C(=O)N3CCC(N[C@@H]4CCOC[C@@H]4F)CC3)c(C)c(N3CCc4cc(C(F)(F)F)ccc4C3)n2)no1 [Example 6]
8 nM,380 nM,CO[C@@H]1COCC[C@@H]1NC1CCN(C(=O)c2nc(-c3cc(C)on3)nc(N3CCc4cc(C(F)(F)F)ccc4C3)c2C)CC1 [Example 7]
11 nM,5870 nM,Cc1c(C(=O)N2CCC(N[C@@H]3CCOC[C@@H]3F)CC2)nc(C2CCOCC2)nc1N1CCc2cc(C(F)(F)F)ccc2C1 [Example 8]
38 nM,3400 nM,Cc1cc(-c2nc(C(=O)N3CCC(N[C@H]4CCOC[C@H]4F)CC3)c(C)c(N3CCc4cc(C(F)(F)F)ccc4C3)n2)no1 [Example 9]
15 nM,850 nM,CO[C@H]1COCC[C@H]1NC1CCN(C(=O)c2nc(-c3cc(C)on3)nc(N3CCc4cc(C(F)(F)F)ccc4C3)c2C)CC1 [Example 10]
0.8 nM,430 nM,CO[C@H]1COCC[C@H]1NC1CCN(C(=O)c2nc(C3CCOCC3)nc(N3CCc4ccc(C(F)(F)F)cc4C3)c2C)CC1 [Example 11]
0.6 nM,46 nM,CO[C@@H]1COCC[C@@H]1NC1CCN(C(=O)c2nc(C3CCOCC3)nc(N3CCc4ccc(C(F)(F)F)cc4C3)c2C)CC1 [Example 12]
0.7 nM,,CO[C@@H]1COCC[C@@H]1NC1CCN(C(=O)c2nc(-c3cc(C)on3)nc(NC[C@H]3CCC[C@@H](c4ccc(C(F)(F)F)cc4)O3)c2C)CC1 [Example 22]
1 nM,,CO[C@H]1COCC[C@H]1NC1CCN(C(=O)c2nc(-c3cc(C)on3)nc(NC[C@H]3CCC[C@@H](c4ccc(C(F)(F)F)cc4)O3)c2C)CC1 [Example 25]
